ChEMBL document CHEMBL4732259, “Imidazo[1,2-c]pyrimidin-5(6H)-one inhibitors of CDK2: Synthesis, kinase inhibition and co-crystal structure” (Eur J Med Chem, 2021)
Calls of active or inactive are those of the source. The calls are words filed in the database; no cut-off is given here.

How the values were obtained:
[1] = molecular target: T1, Cyclin-dependent kinase 2/cyclin E1 (Homo sapiens, UniProt P24941); assay: Inhibition of CDK2/cyclin E (unknown origin) using peptide substrate in presence of [gamma33P]ATP by image analyser; format: protein-complex assay
K562 = assay: Antiproliferative activity against human K562 cells assessed as cell viability at 10 uM incubated for 72 hrs by resazurin assay; format: functional; details: read-out: Activity
MOLM-13 [2] = assay: Antiproliferative activity against human MOLM-13 cells assessed as cell viability at 10 uM incubated for 72 hrs by resazurin assay; format: functional; details: read-out: Activity
MV4-11 [3] = assay: Antiproliferative activity against human MV4-11 cells assessed as cell viability at 10 uM incubated for 72 hrs by resazurin assay; format: functional; details: read-out: Activity
[4] = molecular target: Cyclin-dependent kinase 4/cyclin D1 (Homo sapiens) (UniProt P11802+P24385); assay: Inhibition of CDK4/cyclin D1 (unknown origin) at 20 uM using peptide substrate in presence of [gamma33P]ATP by image analyser relative to control; format: protein-complex assay
[5] = molecular target: Cyclin-dependent kinase 1/cyclin B1 (Homo sapiens, UniProt P06493); assay: Inhibition of CDK1/cyclin B (unknown origin) using peptide substrate in presence of [gamma33P]ATP by image analyser; format: protein-complex assay
Chain of Cyclin-dependent kinase 1/cyclin B1 (P06493 whole entry): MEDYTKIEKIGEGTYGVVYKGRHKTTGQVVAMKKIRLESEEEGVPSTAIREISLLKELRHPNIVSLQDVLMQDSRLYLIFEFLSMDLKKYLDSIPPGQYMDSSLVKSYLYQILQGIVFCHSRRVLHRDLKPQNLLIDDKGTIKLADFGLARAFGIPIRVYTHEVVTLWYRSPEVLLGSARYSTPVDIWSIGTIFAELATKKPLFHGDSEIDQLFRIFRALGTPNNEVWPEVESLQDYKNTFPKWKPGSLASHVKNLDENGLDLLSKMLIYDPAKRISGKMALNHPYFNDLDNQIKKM
Chain of Cyclin-dependent kinase 1/cyclin B1 (P14635 whole entry, further chain): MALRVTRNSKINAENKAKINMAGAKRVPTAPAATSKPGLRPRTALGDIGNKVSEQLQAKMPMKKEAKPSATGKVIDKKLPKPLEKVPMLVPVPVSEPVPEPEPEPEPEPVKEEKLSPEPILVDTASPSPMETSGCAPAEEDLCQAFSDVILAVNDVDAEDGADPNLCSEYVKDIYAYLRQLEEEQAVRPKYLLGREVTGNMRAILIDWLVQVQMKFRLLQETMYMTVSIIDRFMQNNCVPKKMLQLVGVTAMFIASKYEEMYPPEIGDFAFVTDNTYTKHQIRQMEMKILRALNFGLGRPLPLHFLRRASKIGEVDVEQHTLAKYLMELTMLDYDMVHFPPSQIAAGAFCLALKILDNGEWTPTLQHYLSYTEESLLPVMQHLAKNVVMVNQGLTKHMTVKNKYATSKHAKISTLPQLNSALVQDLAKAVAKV

CDK2/Cyclin A2 = CDK2/Cyclin A2 (Homo sapiens, UniProt P24941); assay: Inhibition of CDK2/cyclin A2 (unknown origin) using peptide substrate in presence of [gamma33P]ATP by image analyser; format: protein-complex assay
[6] = Inhibition of CDK3/cyclin A2 (unknown origin) using peptide substrate in presence of [gamma33P]ATP by image analyser; design: species or system Homo sapiens
[7] = molecular target: Cyclin-dependent kinase 4/cyclin D1 (Homo sapiens, UniProt P11802); assay: Inhibition of CDK4/cyclin D1 (unknown origin) using peptide substrate in presence of [gamma33P]ATP by image analyser; format: protein-complex assay
Chain of Cyclin-dependent kinase 4/cyclin D1 (P11802 whole entry): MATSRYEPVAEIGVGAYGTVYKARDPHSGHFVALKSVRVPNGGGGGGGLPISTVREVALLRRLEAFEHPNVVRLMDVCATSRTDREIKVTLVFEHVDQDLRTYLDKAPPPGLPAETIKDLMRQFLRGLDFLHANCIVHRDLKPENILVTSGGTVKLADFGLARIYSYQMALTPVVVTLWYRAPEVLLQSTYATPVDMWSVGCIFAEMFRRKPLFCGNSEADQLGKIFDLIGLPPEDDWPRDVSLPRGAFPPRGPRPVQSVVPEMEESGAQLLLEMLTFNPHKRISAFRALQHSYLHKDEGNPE
Chain of Cyclin-dependent kinase 4/cyclin D1 (P24385 whole entry, further chain): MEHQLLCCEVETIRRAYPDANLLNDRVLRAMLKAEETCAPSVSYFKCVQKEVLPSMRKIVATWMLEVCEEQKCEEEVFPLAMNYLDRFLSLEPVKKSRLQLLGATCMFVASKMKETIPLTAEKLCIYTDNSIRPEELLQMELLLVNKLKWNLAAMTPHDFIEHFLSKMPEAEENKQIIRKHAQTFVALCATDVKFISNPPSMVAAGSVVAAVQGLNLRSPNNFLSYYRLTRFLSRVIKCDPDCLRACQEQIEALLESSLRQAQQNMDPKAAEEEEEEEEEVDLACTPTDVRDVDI

CDK9/cyclin T1 = CDK9/cyclin T1 (Homo sapiens, UniProt P50750); assay: Inhibition of CDK9/cyclin T1 (unknown origin) using peptide substrate in presence of [gamma33P]ATP by image analyser; format: protein-complex assay
Chain of CDK9/cyclin T1 (O60563 whole entry): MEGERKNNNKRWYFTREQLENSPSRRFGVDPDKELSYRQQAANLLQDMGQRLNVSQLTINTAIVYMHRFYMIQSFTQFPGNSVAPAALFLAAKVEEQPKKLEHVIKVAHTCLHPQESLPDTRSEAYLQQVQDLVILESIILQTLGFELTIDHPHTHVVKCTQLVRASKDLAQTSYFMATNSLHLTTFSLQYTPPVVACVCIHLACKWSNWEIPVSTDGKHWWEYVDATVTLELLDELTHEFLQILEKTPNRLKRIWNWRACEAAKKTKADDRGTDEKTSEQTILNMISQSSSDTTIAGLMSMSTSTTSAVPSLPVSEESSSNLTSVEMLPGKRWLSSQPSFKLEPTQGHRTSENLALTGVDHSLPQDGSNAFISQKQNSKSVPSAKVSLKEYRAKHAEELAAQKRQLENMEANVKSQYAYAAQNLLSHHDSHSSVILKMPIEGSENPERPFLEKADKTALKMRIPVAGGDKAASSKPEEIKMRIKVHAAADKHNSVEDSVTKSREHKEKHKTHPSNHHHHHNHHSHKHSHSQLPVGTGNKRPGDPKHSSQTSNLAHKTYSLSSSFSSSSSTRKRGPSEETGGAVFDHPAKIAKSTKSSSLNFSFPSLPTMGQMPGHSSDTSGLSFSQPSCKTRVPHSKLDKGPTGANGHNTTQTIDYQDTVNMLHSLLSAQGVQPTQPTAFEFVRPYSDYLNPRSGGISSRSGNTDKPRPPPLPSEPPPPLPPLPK
Chain of CDK9/cyclin T1 (P50750 whole entry): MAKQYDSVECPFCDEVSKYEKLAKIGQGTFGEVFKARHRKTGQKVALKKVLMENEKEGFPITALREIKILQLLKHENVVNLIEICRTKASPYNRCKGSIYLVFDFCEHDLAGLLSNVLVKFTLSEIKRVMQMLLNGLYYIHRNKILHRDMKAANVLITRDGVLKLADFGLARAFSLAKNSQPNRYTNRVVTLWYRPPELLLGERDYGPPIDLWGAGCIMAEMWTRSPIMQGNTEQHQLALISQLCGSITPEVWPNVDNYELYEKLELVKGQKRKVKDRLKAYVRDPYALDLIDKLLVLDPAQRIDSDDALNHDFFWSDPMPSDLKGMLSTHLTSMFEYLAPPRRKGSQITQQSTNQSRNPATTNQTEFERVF

[8] = molecular target: T2, Cyclin-dependent kinase 2 (Homo sapiens, UniProt P24941); assay: Binding affinity to CDK2 (unknown origin) by isothermal titration calorimetry
[9] = molecular target: T2, Cyclin-dependent kinase 2; assay: Binding affinity to CDK2 (unknown origin) assessed as change in enthalpy by isothermal titration calorimetry
[10] = molecular target: T2, Cyclin-dependent kinase 2; assay: Binding affinity to CDK2 (unknown origin) assessed as change in entropy by isothermal titration calorimetry
MOLM-13 [11] = assay: Antiproliferative activity against human MOLM-13 cells assessed as growth inhibition after 72 hrs by resazurin assay; format: functional
MV4-11 [12] = assay: Antiproliferative activity against human MV4-11 cells assessed as growth inhibition after 72 hrs by resazurin assay; format: functional
MV4-11 [13] = assay: Induction of cell cycle arrest in human MV4-11 cells assessed as accumulation at G1 phase after 24 to 72 hrs by propidium iodide staining based flow cytometry analysis; format: functional; details: dose 6-100 µM, time 24-72 hrs
MV4-11 [14] = assay: Induction of cell cycle arrest in human MV4-11 cells assessed as accumulation at sub-G1 phase at high dose after 72 hrs by propidium iodide staining based flow cytometry analysis; format: functional
MV4-11 [15] = assay: Induction of cell cycle arrest in human MV4-11 cells assessed as reduction in S phase cells at high dose after 24 to 72 hrs by propidium iodide staining based flow cytometry analysis; format: functional; details: time 24-72 hrs
[16] = molecular target: T2, Cyclin-dependent kinase 2
Description: Binding affinity to CDK2 (unknown origin) assessed as gibbs free energy change by isothermal titration calorimetry

[17] = molecular target: T1, Cyclin-dependent kinase 2/cyclin E1; assay: Inhibition of CDK2/cyclin E (unknown origin) expressed in baculovirus infected Sf9 cells using histone H1 as substrate in presence of [gamma33P]ATP by image analyser

IC50 [1] [µM] | SMILES | viability at 10 µM (K562) [%] | viability at 10 µM (MOLM-13 [2]) [%] | viability at 10 µM (MV4-11 [3]) [%] | further results
4.7 | Cn1cc(C2CCCCC2)c2nccn2c1=O | 105 | 88.3 | 89.3 | 
> 50 | CCOC(=O)Cn1cc(C2CCCCC2)c2nccn2c1=O | 110 | 90.3 | 93.3 | 
> 50 | O=c1[nH]cc(-c2ccccc2)c2nc(-c3ccccc3)cn12 | 105 | 83.5 | 84.1 | 
0.66 | O=c1[nH]cc(C2CCCCC2)c2nccn12 | 103 | 84.8 | 82.2 | inhibition [4]: 46%; IC50 [5]: 4.3 µM; IC50 (CDK2/Cyclin A2): 0.68 µM; IC50 [6]: 2.72 µM; IC50 [7]: 14.3 µM; IC50 (CDK9/cyclin T1): 10 µM; Kd [8]: 4.1 µM; deltaH [9]: -11.4 kcal/mol; -TdeltaS [10]: 3.92 kcal/mol; GI50 (MOLM-13 [11]): 50 µM; GI50 (MV4-11 [12]): 50 µM; Activity (MV4-11 [13]): Dose-dependent effect; Activity (MV4-11 [14]): Active; Activity (MV4-11 [15]): Active; deltaG [16]: -7.48 kcal/mol
> 25 | COc1ccc(-c2cn3c(=O)[nH]cc(-c4ccc(OC)cc4)c3n2)cc1 | 36.2 | 15.3 | 52 | 
6.5 | O=c1[nH]cc(C2CCCCC2)c2nc(I)cn12 | 101 | 33.8 | 40.1 | 
> 12.5 | O=c1[nH]cc(-c2ccc(-c3c[nH]c(=O)n4ccnc34)cc2)c2nccn12 | 111 | 87.5 | 91.4 | 
4 | O=c1[nH]cc(C2CCCC2)c2nccn12 | 105 | 90.5 | 90.2 | 
 | NS(=O)(=O)c1ccc(Nc2nc(OCC3CCCCC3)c3nc[nH]c3n2)cc1 | 103 | 66 | 32.1 | 
4.8 | O=c1[nH]cc(-c2cccc(O)c2)c2nccn12 | 104 | 85.6 | 82 | 
> 12.5 | O=c1[nH]cc(-c2ccccc2)c2nc(I)c(I)n12 | 113 | 56.7 | 63.1 | 
 | O=c1[nH]cc(-c2ccccc2)c2nccn12 | 108 | 87.4 | 89.2 | IC50 [17]: 6.6 µM
4.6 | O=c1[nH]cc(C2CCCCC2)c2nc(I)c(I)n12 | 99.5 | 53.9 | 57 | 
> 50 | O=C1c2ccccc2C(=O)N1Cn1cc(C2CCCCC2)c2nccn2c1=O | 107 | 91.3 | 87.4 | 
8.9 | O=c1[nH]cc(-c2ccsc2)c2nccn12 | 105 | 87.8 | 84.9 | 
3 | O=c1n(CCCO)cc(C2CCCCC2)c2nccn12 | 104 | 94.1 | 91.7 | 
17.8 | O=c1[nH]cc(/C=C/c2ccccc2)c2nccn12 | 107 | 55.6 | 42.3 | 
14.2 | O=c1[nH]cc(C2CCCCC2)c2ncc(I)n12 | 100 | 70.7 | 78.5 | 
7.7 | CC(=O)OCCCn1cc(C2CCCCC2)c2nccn2c1=O | 101 | 93.8 | 88.5 | 
1.2 | O=c1[nH]cc(C2=CCCCC2)c2nccn12 | 101 | 88.7 | 80.6 | 
24.4 | O=c1[nH]cc(-c2ccccc2)c2nc(Br)cn12 | 105 | 83.9 | 77.2 | 
> 25 | O=c1[nH]cc(-c2ccccc2)c2ncc(I)n12 | 109 | 77.4 | 72.6 | 
> 25 | O=c1[nH]cc(-c2ccccc2)c2nc(I)cn12 | 110 | 63.3 | 62.6 | 
0.031 | NS(=O)(=O)c1ccc(Nc2nc(-c3cccc(-c4ccccc4)c3)c3nc[nH]c3n2)cc1 | 94.5 | 98.3 | 62.8 | IC50 [5]: 4.3 µM; IC50 (CDK2/Cyclin A2): 0.022 µM; IC50 [6]: 2.87 µM; IC50 [7]: > 20 µM; IC50 (CDK9/cyclin T1): 9.4 µM
4.9 | O=c1[nH]cc(C2=CCCC2)c2nccn12 | 106 | 93.4 | 88.2 | 
> 25 | COc1ccc(-c2cn3c(=O)[nH]cc(F)c3n2)cc1 | 109 | 51.8 | 42.9 | 
1.5 | O=c1n(CCO)cc(C2CCCCC2)c2nccn12 | 103 | 91.9 | 88.4 | 
> 50 | O=c1[nH]cc(-c2ccccc2)c2ncc(Br)n12 | 109 | 82.7 | 78.6 | 
> 50 | O=C(O)Cn1cc(C2CCCCC2)c2nccn2c1=O | 108 | 90.3 | 94.7 | 
1.5 | O=c1[nH]cc(-c2ccc(O)cc2Cl)c2nccn12 | 105 | 86.2 | 85 | 
